Measured values as given in the supplement of paper PMC13380429.

How the values were obtained:
Conditions in all cases: 72 h
Caco-2 [1] = experiment: cell viability relative to DMSO; higher = less toxic
HepG2 [2] = experiment: as above
U2OS [3] = experiment: as above
Vero E6 [4] = experiment: as above
Caco-2 [5] = experiment: relative viability EC50 (midpoint between 100% and the lowest measured viability); higher = less toxic
HepG2 [6] = experiment: as above
U2OS [7] = experiment: as above
Vero E6 [8] = experiment: as above
Caco-2 [9] = experiment: drug sensitivity score (DSS) for viability; higher = more toxic; extreme values may be limits of the assay
HepG2 [10] = experiment: as above
U2OS [11] = experiment: as above
Vero E6 [12] = experiment: as above
Calu-3 [13] = experiment: cell viability relative to DMSO; higher = less toxic
Calu-3 [14] = experiment: drug sensitivity score (DSS) for viability; higher = more toxic; extreme values may be limits of the assay
Calu-3 [15] = experiment: relative viability EC50 (midpoint between 100% and the lowest measured viability); higher = less toxic

SMILES | cell viability (Caco-2 [1]; 1 nM) | cell viability (Caco-2 [1]; 10 nM) | cell viability (Caco-2 [1]; 100 nM) | cell viability (Caco-2 [1]; 1000 nM) | cell viability (Caco-2 [1]; 10000 nM) | cell viability (HepG2 [2]; 1 nM) | cell viability (HepG2 [2]; 10 nM) | cell viability (HepG2 [2]; 100 nM) | cell viability (HepG2 [2]; 1000 nM) | cell viability (HepG2 [2]; 10000 nM) | cell viability (U2OS [3]; 1 nM) | cell viability (U2OS [3]; 10 nM) | cell viability (U2OS [3]; 100 nM) | cell viability (U2OS [3]; 1000 nM) | cell viability (U2OS [3]; 10000 nM) | cell viability (Vero E6 [4]; 1 nM) | cell viability (Vero E6 [4]; 10 nM) | cell viability (Vero E6 [4]; 100 nM) | cell viability (Vero E6 [4]; 1000 nM) | cell viability (Vero E6 [4]; 10000 nM) | relative viability EC50 (Caco-2 [5]) | relative viability EC50 (HepG2 [6]) | relative viability EC50 (U2OS [7]) | relative viability EC50 (Vero E6 [8]) | drug sensitivity score (Caco-2 [9]) | drug sensitivity score (HepG2 [10]) | drug sensitivity score (U2OS [11]) | drug sensitivity score (Vero E6 [12]) | cell viability (Calu-3 [13]; 1 nM) | cell viability (Calu-3 [13]; 10 nM) | cell viability (Calu-3 [13]; 100 nM) | cell viability (Calu-3 [13]; 1000 nM) | cell viability (Calu-3 [13]; 10000 nM) | drug sensitivity score (Calu-3 [14]) | relative viability EC50 (Calu-3 [15])
NCCc1c[nH]c2ccc(O)cc12 [serotonin] | 96.8% | 89.1% | 102% | 90.2% | 89.5% | 89.2% | 91.4% | 94.3% | 88.4% | 107% | 91.3% | 95.8% | 94.3% | 97.3% | 92.9% | 107% | 102% | 103% | 98.9% | 101% | > 10 µM | > 10 µM | > 10 µM | > 10 µM | 0 | 0 | 0 | 0 |  |  |  |  |  |  | 
COc1ccc(S(=O)(=O)N(C(C)=O)c2ccccc2/C=C/c2cc[n+]([O-])cc2)cc1 [HMN-214] | 105% | 89.6% | 94.2% | 60.3% | 48.4% | 98.4% | 105% | 98.1% | 40.3% | 38% | 97.5% | 95.8% | 96.9% | 51.9% | 29.3% | 94.6% | 97.9% | 99.8% | 41.8% | 41% | 0.41 µM | 0.323 µM | 0.634 µM | 0.324 µM | 8 | 11.3 | 9.8 | 10.7 | 101% | 95% | 105% | 71.5% | 60.4% | 5.3 | 
CC(C(=O)O)c1ccc(N2Cc3ccccc3C2=O)cc1 (centres undefined) [indoprofen] | 91.9% | 97.8% | 99.5% | 96.5% | 93.8% |  |  |  |  |  | 95.8% | 97.6% | 103% | 100% | 102% | 95.9% | 99.6% | 97.8% | 99.4% | 105% | > 10 µM |  | > 10 µM | > 10 µM | 0 |  | 0 | 0 | 84.3% | 104% | 97.1% | 92.9% | 94.1% | 0 | > 10 µM
CC(=O)O[C@H]1CC[C@@]2(C)C(=CC[C@@H]3[C@@H]2CC[C@]2(C)C(c4cccnc4)=CC[C@@H]32)C1 [abiraterone-acetate] | 97.1% | 99.8% | 95.5% | 92.8% | 92.6% |  |  |  |  |  | 101% | 100% | 99.5% | 95.8% | 102% |  |  |  |  |  | > 10 µM |  | > 10 µM |  | 0 |  | 0 |  | 98.3% | 102% | 96.6% | 87.8% | 107% | 0 | > 10 µM
CC(C(=O)O)c1ccc2c(c1)CC(=O)c1ccccc1S2 (centres undefined) [zaltoprofen] | 99.7% | 93.8% | 98.4% | 106% | 101% | 95.5% | 103% | 101% | 110% | 111% | 99.9% | 97.3% | 99.6% | 98.1% | 101% | 93.8% | 101% | 90.9% | 100% | 104% | > 10 µM | > 10 µM | > 10 µM | > 10 µM | 0 | 0 | 0 | 0 |  |  |  |  |  |  | 
COc1cc(OC)c(OC)cc1C=O [asaraldehyde] | 95.2% | 102% | 94.8% | 104% | 90.1% |  |  |  |  |  | 97.3% | 103% | 97.7% | 105% | 99% | 108% | 100% | 98.6% | 103% | 102% | > 10 µM |  | > 10 µM | > 10 µM | 0 |  | 0 | 0 | 87% | 108% | 90.5% | 107% | 88.3% | 0 | > 10 µM
Cc1cccc(-c2n[nH]cc2-c2ccc(F)c(-c3cnn(CCO)c3)c2)n1 | 93.3% | 91.9% | 99.7% | 92.5% | 91.5% | 103% | 94.1% | 95.2% | 106% | 109% | 103% | 98.8% | 95.7% | 89.3% | 92.6% | 96.1% | 101% | 98% | 93.4% | 94.5% | > 10 µM | > 10 µM | > 10 µM | > 10 µM | 0 | 0 | 0.1 | 0 |  |  |  |  |  |  | 
COc1ccc2nc3[nH]nc(C)c3c(NCCOCCO)c2c1 | 103% | 102% | 89.6% | 100% | 96.8% | 104% | 97.2% | 102% | 87.6% | 75% | 102% | 102% | 95.9% | 105% | 104% | 106% | 98% | 102% | 99.4% | 91.9% | > 10 µM | > 10 µM | > 10 µM | > 10 µM | 0 | 2.4 | 0 | 0 | 106% | 107% | 88.8% | 94.7% | 70% | 2.1 | 
